Reference: ChEMBL document CHEMBL1127977, “Benzolactam growth hormone secretagogues: Carboxamides as replacements for the 2-tetrazole moiety of L-692,429” (1994)

Species: Rattus norvegicus
Test: Tested in vitro for growth hormone release in rat pituitary cells
Format: functional
Details: Pituitary gland cell, read-out: ED50 (the source's name)

SMILES	EC50 [nM]
CC(C)(N)CC(=O)N[C@@H]1CCc2ccccc2N(Cc2ccc(-c3ccccc3C(=O)NCCCCCO)cc2)C1=O	10
CCN(CC)C(=O)c1ccccc1-c1ccc(CN2C(=O)[C@H](NC(=O)CC(C)(C)N)CCc3ccccc32)cc1	2000
CC(C)(N)CC(=O)N[C@@H]1CCc2ccccc2N(Cc2ccc(-c3ccccc3C(=O)NCc3ccc(O)cc3)cc2)C1=O	300
CC(C)(N)CC(=O)N[C@@H]1CCc2ccccc2N(Cc2ccc(-c3ccccc3C(=O)NCCCCO)cc2)C1=O	10
COc1ccc(CNC(=O)c2ccccc2-c2ccc(CN3C(=O)[C@H](NC(=O)CC(C)(C)N)CCc4ccccc43)cc2)cc1	2000
CC(C)(N)CC(=O)N[C@@H]1CCc2ccccc2N(Cc2ccc(-c3ccccc3C(=O)NCCO)cc2)C1=O	3000
CC(C)(N)CC(=O)N[C@@H]1CCc2ccccc2N(Cc2ccc(-c3ccccc3-c3nn[nH]n3)cc2)C1=O	60
CC(C)(N)CC(=O)N[C@@H]1CCc2ccccc2N(Cc2ccc(-c3ccccc3C(=O)NCc3ccccc3)cc2)C1=O	900
CCNC(=O)c1ccccc1-c1ccc(CN2C(=O)[C@H](NC(=O)CC(C)(C)N)CCc3ccccc32)cc1	90
CCCCCNC(=O)c1ccccc1-c1ccc(CN2C(=O)[C@H](NC(=O)CC(C)(C)N)CCc3ccccc32)cc1	> 1000
CC(C)(N)CC(=O)N[C@@H]1CCc2ccccc2N(Cc2ccc(-c3ccccc3C(N)=O)cc2)C1=O	80
CC(C)(CC(=O)N[C@@H]1CCc2ccccc2N(Cc2ccc(-c3ccccc3C(N)=O)cc2)C1=O)NC[C@H](O)CO	3
CC(C)(N)CC(=O)N[C@@H]1CCc2ccccc2N(Cc2ccc(-c3ccccc3C(=O)NCCCO)cc2)C1=O	400
CC(C)(CC(=O)N[C@@H]1CCc2ccccc2N(Cc2ccc(-c3ccccc3-c3nn[nH]n3)cc2)C1=O)NC[C@H](O)CO	10
C[C@@H](O)CNC(C)(C)CC(=O)N[C@@H]1CCc2ccccc2N(Cc2ccc(-c3ccccc3C(N)=O)cc2)C1=O	4
C[C@@H](O)CNC(C)(C)CC(=O)N[C@@H]1CCc2ccccc2N(Cc2ccc(-c3ccccc3-c3nn[nH]n3)cc2)C1=O [L-692585]	3
